System: HCT-5 cells
Experiment: Proliferation/viability of HTLV-1 infected cell line HCT-5 (CCK-8)
Type: cell-based, human
Details: for Viability of HTLV-1 infected cells vs DMSO group: HCT-5, 1 μM, up to 21 days culture; for GI50: Homo sapiens, 336 h, 14 days culture, CCK-8
Procedure: HCT-4 and HCT-5, which were HTLV-1 infected cell lines established from the cerebrospinal fluid of HAM patients, were donated from a professor, Tatsufumi Nakamura of the Nagasaki International University. HCT-4 was cultured in RPMI1640 culture medium containing 10% FBS (GIBCO), a 1% penicillin-streptomycin solution (Wako) and 100 U/mL IL-2 (Cell Science & Technology Institute, Inc.); whereas HCT-5 was cultured by using 10% FBS, 1% penicillin-streptomycin solution, 1% L-glutamine (SIGMA) and 200 U/mL IL-2. HCT-4 (3×10^6 cells) or HCT-5 (2.5×10^6 cells) were seeded in a culture medium (20 mL) in a 75 cm^2-culture flask. DMSO was added and compound A or B was added so as to provide a final concentration of 1 μM and culture was carried out at 37° C. in 5% CO2 conditions for 21 days while repeating subculture. In the subculture, a culture solution containing HCT-4 treated with DMSO so as to correspond to 3×10^6 cells, whereas a culture solution containing HCT-5 treated with DMSO so as to correspond to 2.5×10^6 cells were taken and each added to a new culture medium to obtain a final volume of 20 mL, and then, further compound A or B was added so as to obtain the same concentration as above. Day 7, 14 and 21 after initiation of culture, cells were recovered from the culture solution and the density of the cells was measured. In this manner, the effect of compound A or B on cell proliferation was examined. The density of cells was determined by seeding cultured cells in a 96-well plate in a volume of 100 μL per well, adding 10 μL of Cell counting kit-8 (CCK-8) (Dojindo Laboratories laboratory) per well, incubating the cells at 37° C. for 3 hours and measuring absorbance at 450 nm by a plate reader (iMark Microplate Reader, Biorad). The proliferation rates of cell groups treated with compound A or compound B were each calculated based on the cell group treated with DMSO as a control. Next, in a 6-well plate, HCT-4 (4.5×10^5 cells) or HCT-5 (3.75×10^5 cells) were seeded. A solution of compound A or B prepared with DMSO was serially diluted (4-fold dilution from 10000 nM was serially repeated 8 times) and added thereto. The cells were repeatedly subcultured at intervals of 3 to 4 days in a culture solution of 3 mL in total at 37° C. in 5% CO2 condition for 14 days. […] The cells cultured for 14 days in individual conditions were recovered and the density of the cells were measured. […] The density of cells was determined by seeding the cultured cells (100 μL) per well in a 96-well plate, adding 10 μL of CCK-8 per well, incubating the cells at 37° C. for 3 hours and measuring absorbance at 450 nm by a plate reader. The proliferation rate of a group treated with compound A or compound B was calculated based on the group treated with DMSO as a control.

With `Cc1cc(C)c(CNC(=O)c2cc(Cl)c3c(c2C)O[C@@](C)([C@H]2CC[C@H](N(C)C)CC2)O3)c(=O)[nH]1` [compound B, (2R)-7-chloro-2-[trans-4-(dimethylamino)cyclohexyl]-N-[(4,6-dimethyl-2-oxo-1,2-dihydropyridin-3-yl)methyl]-2,4-dimethyl-1,3-benzodioxole-5-carboxamide] the “Viability of HTLV-1 infected cells vs DMSO group” value was “significantly reduce the viability” and the GI50 was 90.6 nM.
`Cc1cc(C)c(CNC(=O)c2cc(Br)c3c(c2C)O[C@@](C)([C@H]2CC[C@H](N(C)C)CC2)O3)c(=O)[nH]1` [compound A, (2R)-7-bromo-2-[trans-4-(dimethylamino)cyclohexyl]-N-[(4,6-dimethyl-2-oxo-1,2-dihydropyridin-3-yl)methyl]-2,4-dimethyl-1,3-benzodioxole-5-carboxamide] was tested, and the “Viability of HTLV-1 infected cells vs DMSO group” value was “significantly reduce the viability” and the GI50 was 185 nM.

— patent US11311524B2, “Pharmaceutical composition used for treatment of HTLV-1-associated myelopathy” (DAIICHI SANKYO COMPANY, LIMITED, priority 2017, dated 2022)
